In patent US9499493B2, “2,4-pyrimidinediamine compounds and their uses” (Rigel Pharmaceuticals, Inc., priority 2002, dated 2016):

Legend:
Type in all cases: cell-based
[1] = system: cultured human mast cells (CHMC); test: CHMC low cell density ionomycin activation: tryptase assay
[2] = system: FcγRI-mediated degranulation; test: FcγRI receptor-mediated degranulation (activation with anti-human IgG Fab fragment); conditions: cells not primed with IgE, activated with rabbit anti-human IgG Fab fragment
Jurkat cells = test: Jurkat (T-cell) toxicity, light scatter; conditions: 18-24 hr incubation; read-out: Toxicity Jurkat Light Scat.
Experimental: Dilute Jurkat cells to 2×10^5 cells/ml in complete RPMI (10% heat-inactivated fetal bovine serum) media and incubate at 37° C., 5% CO2 for 18 hours. Add 65 ul cells at 7.7×10^5 cells/ml to a 96-well V-bottom plate (TC-treated, Costar) containing 65 ul 2× compound (final vehicle concentration is 0.5% DMSO, 1.5% MeOH). Mix, incubate plates for 18-24 hr at 37° C., 5% CO2. Toxicity was assessed by flow cytometric analysis of cellular light scatter

B-cell line BJAB = test: BJAB (B-cell) toxicity, light scatter; conditions: read-out: Toxicity BJAB Light Scat.
Experimental: The B-cell line BJAB was cultured in log phase in RPMI1640+10% heat-inactivated fetal bovine serum, 1× L-glutamine, 1× penicillin, 1× […] and 1× beta-mercaptoethanol at 37° C., 5% CO2. First, BJABs were harvested, spun and resuspended in culture medium to a concentration of 7.7×10^5 cells/mL. 65 uL cells were mixed with 65 uL compound, in duplicate and in the presence of 0.1% DMSO in a V-bottomed 96-well tissue culture plate. Cells were incubated with compound at various dilutions at 37° C., 5% CO2. Toxicity was assessed by flow cytometric analysis of cellular light scatter.

[3] = system: cultured human mast cells (CHMC); test: CHMC low cell density IgE activation: tryptase assay; conditions: anti-IgE
Method in brief: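 Read-out: tryptase released into supernatant, measured by substrate turnover over 30 min at RT. Low-density CHMC (1000-1500 cells/well, per donor degranulation activity) in MT buffer, 1 hr at 37° C, then anti-IgE challenge 30 min at 37° C.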

[4] = system: cultured human mast cells (CHMC); test: CHMC low cell density IgE activation: LTC4 assay; conditions: anti-IgE
Experimental: Pellet CHMC cells (980 rpm, 10 min) and resuspend in pre-warmed MT. Add 65 ul of cells to each 96-well plate. Depending on the degranulation activity for each particular CHMC donor, load 1000-1500 cells/well. Mix four times followed by a 1 hr incubation at 37° C. […] Stimulate cells by adding 25 ul of 6× anti-IgE solution to the appropriate plates. Add 25 ul MT to un-stimulated control wells. Mix twice following addition of the anti-IgE. Incubate at 37° C. for 30 minutes. […] Spin plates at 1000 rpm for 10 min to pellet cells. Transfer 25 ul of supernatant to a 96-well black bottom plate and add 100 ul of freshly diluted tryptase substrate solution to each well. Incubate plates at room temperature for 30 min.
Leukotriene C4 (LTC4) is also quantified using an ELISA kit on appropriately diluted supernatant samples (determined empirically for each donor cell population so that the sample measurement falls within the standard curve) following the supplier's instructions.

[5] = system: cultured human mast cells (CHMC); test: CHMC high cell density IgE activation: TNFalpha; conditions: anti-IgE activation; read-out: CHMC high density TNF-alpha
Experimental: (§1) Inhibition of degranulation was measured at both low and high cell density by quantifying the release of the granule specific factors tryptase, histamine and hexosaminidase. Inhibition of release and/or synthesis of lipid mediators was assessed by measuring the release of leukotriene LTC4 and inhibition of release and/or synthesis of cytokines was monitored by quantifying TNF-α, IL-6 and IL-13. Tryptase and hexosaminidase were quantified using fluorogenic substrates as described in their respective examples. […] The protocols of the various assays are provided below.
(§2) After sensitizing, cells are counted, pelleted (1000 rpm, 5-10 minutes), and resuspended at 1-2×10^6 cells/ml in MT buffer. Add 100 ul of cell suspension to each well and 100 ul of compound dilutions. The final vehicle concentration is 0.5% DMSO. Incubate at 37° C. (5% CO2) for 1 hour. After 1 hour of compound treatment, stimulate cells with 6× anti-IgE. Mix wells with the cells and allow plates to incubate at 37° C. (5% CO2) for one hour. After 1 hour incubation, pellet cells (10 minutes, 1000 RPM) and collect 200 ul per well of the supernatant, being careful not to disturb pellet. Place the supernatant plate on ice. During the 7-hour step (see next) perform tryptase assay on supernatant that had been diluted 1:500. Resuspend cell pellet in 240 ul of CM media containing 0.5% DMSO and corresponding concentration of compound. Incubate CHMC cells for 7 hours at 37° C. (5% CO2). After incubation, pellet cells (1000 RPM, 10 minutes) and collect 225 ul per well and place in −80° C. until ready to perform ELISAS. ELISAS are performed on appropriately diluted samples (determined empirically for each donor cell population so that the sample measurement falls within the standard curve) following the supplier's instructions.

[6] = system: cultured human mast cells (CHMC); test: CHMC high cell density IgE activation: hexos (hexosaminidase) release; conditions: anti-IgE activation
Experimental: as §1, §2

[7] = system: cultured human mast cells (CHMC); test: CHMC high cell density IgE activation: tryptase; conditions: anti-IgE activation
Experimental: as §2

[8] = system: cultured human mast cells (CHMC); test: CHMC high cell density IgE activation: histamine; conditions: anti-IgE activation
Experimental: as §1, §2

[9] = system: cultured human mast cells (CHMC); test: CHMC high cell density IgE activation: LTC4; conditions: anti-IgE activation
Experimental: as §1, §2

[10] = system: cultured human mast cells (CHMC); test: CHMC high cell density IgE activation: IL-13; conditions: anti-IgE activation
Experimental: as §1, §2

| IC50 [1] [nM] | IC50 [3] [nM] | IC50 [4] [nM] | Compound | IC50 (Jurkat cells) [nM] | IC50 (B-cell line BJAB) [nM] | other results |
| --- | --- | --- | --- | --- | --- | --- |
| > 10000 | – | – | CNC(=O)COc1cccc(Nc2ncc(F)c(Nc3ccc(OC(F)(F)F)c(Cl)c3)n2)c1 [R920410, N4-(3-Chloro-4-trifluoromethoxyphenyl)-5-fluoro-N2-[3-(N-methylamino)carbonylmethyleneoxyphenyl]-2,4-pyrimidinediamine] | – | – | FcγRI-mediated degranulation (in words) [2]: inhibit FcγRI-mediated degranulation |
| > 10000 | – | – | CCOC(=O)COc1ccc(Nc2ncc(C#N)c(Nc3ccc(OCC(=O)OCC)cc3)n2)cc1 [R925775, N2,N4-Bis[4-(ethoxycarbonylmethyleneoxy)phenyl]-5-cyano-2,4-pyrimidinediamine] | > 10000 | > 10000 | – |
| > 10000 | 265 | 190 | CCOC(=O)COc1ccc(Nc2ncc(Br)c(Nc3ccc(OCC(=O)OCC)cc3)n2)cc1 [R925779, N2,N4-Bis[4-(ethoxycarbonylmethyleneoxy)phenyl]-5-bromo-2,4-pyrimidinediamine] | > 10000 | > 10000 | – |
| 1700 | 381 | 145 | COC(=O)COc1ccc(Nc2ncc(F)c(Nc3ccc(OCC(=O)OC)cc3)n2)cc1 [R926240, N2,N4-Bis[(4-methoxycarbonylmethyleneoxy)phenyl]-5-fluoro-2,4-pyrimidinediamine] | 10000 | > 10000 | – |
| – | 800 | 675 | CCOC(=O)c1cnc(Nc2ccc(OCC(=O)OC)cc2)nc1Nc1ccc(OCC(=O)OC)cc1 [R926253, N2,N4-Bis(4-methoxycarbonylmethyleneoxyphenyl)-5-ethoxycarbonyl-2,4-pyrimidinediamine] | > 10000 | > 10000 | – |
| 5100 | 275 | 230 | COC(=O)COc1ccc(Nc2ccnc(Nc3ccc(OCC(=O)OC)cc3)n2)cc1 [R926256, N2,N4-Bis[(4-methoxycarbonylmethyleneoxy)phenyl]-2,4-pyrimidinediamine] | > 10000 | > 10000 | – |
| > 10000 | 900 | 590 | COC(=O)COc1ccc(Nc2ncc(C)c(Nc3ccc(OCC(=O)OC)cc3)n2)cc1 [R926258, N2,N4-Bis(4-methoxycarbonylmethyleneoxyphenyl)-5-methyl-2,4-pyrimidinediamine] | > 10000 | > 10000 | – |
| 6400 | 875 | 290 | CCOC(=O)COc1ccc(Nc2ncc(F)c(Nc3cccc(O)c3)n2)cc1 [R926395, N2-(4-Ethoxycarbonylmethyleneoxyphenyl)-5-fluoro-N4-(3-hydroxyphenyl)-2,4-pyrimidinediamine] | > 10000 | > 10000 | – |
| 2600 | 700 | 160 | CCOC(=O)COc1ccc(Nc2ncc(Br)c(Nc3cccc(O)c3)n2)cc1 [R926396, 5-Bromo-N2-(4-ethoxycarbonylmethyleneoxyphenyl)-N4-(3-hydroxyphenyl)-2,4-pyrimidinediamine] | > 10000 | > 10000 | – |
| 2500 | 690 | – | COC(=O)COc1ccc(Nc2cc(Cl)nc(Nc3ccc(OCC(=O)OC)cc3)n2)cc1 [R926411, N2,N4-Bis(4-methoxycarbonylmethyleneoxyphenyl)-6-chloro-2,4-pyrimidinediamine] | 8500 | > 10000 | – |
| 7400 | 647 | – | Fc1cnc(Nc2cccc(OCCN3CCOCC3)c2)nc1Nc1ccc2c(c1)OCCO2 [R926486, N4-(3,4-Ethylenedioxyphenyl)-5-fluoro-N2-[3-[2-(N-morpholino)ethyleneoxy]phenyl]-2,4-pyrimidinediamine] | – | – | IC50 [5]: 455 nM |
| – | – | – | COC(=O)c1cc2cc(Nc3ncc(F)c(Nc4ccc5[nH]c(C(=O)OC)cc5c4)n3)ccc2[nH]1 [R926593] | – | – | IC50 ([3]; Homo sapiens, Mast cell): 680 nM; IC50 ([4]; Homo sapiens, Mast cell): 495 nM; IC50 ([1]; Homo sapiens, Mast cell): 8300 nM |
| > 10000 | 525 | – | CC(C)Oc1ccc(Nc2nc(Nc3ccc4oc(C(=O)N5CCCC5)cc4c3)ncc2F)cc1 [R926703, 5-Fluoro-N4-(4-isopropoxyphenyl)-N2-[2-(N-pyrrolidino)carbonylbenzofuran-5-yl]-2,4-pyrimidinediamine] | – | – | IC50 [6]: 1510 nM; IC50 [7]: 1950 nM; IC50 [8]: > 2000 nM; IC50 [9]: 724 nM; IC50 [5]: > 2000 nM |
| > 10000 | 101 | – | O=C1Nc2cc(Nc3ncc(F)c(Nc4ccc5c(c4)NC(=O)C(F)(F)O5)n3)ccc2OC1(F)F [R940352, N2,N4-[(2,2-Difluoro-4H-benzo[1,4]oxazin-3-one)-6-yl]-5-fluoro-2,4-pyrimidinediamine] | – | – | FcγRI-mediated degranulation (in words) [2]: inhibit FcγRI-mediated degranulation |
| > 10000 | > 10000 | – | Fc1cnc(Nc2ccc(OCc3nnn[nH]3)cc2)nc1Nc1ccc(OCc2nnn[nH]2)cc1 [R945033, N2,N4-Bis[4-(1H-1,2,3,4-tetrazol-5-yl)methyleneoxyphenyl]-5-fluoro-2,4-pyrimidinediamine] | – | – | IC50 [6]: 8150 nM; IC50 [7]: 8870 nM; IC50 [8]: > 10000 nM; IC50 [9]: 5980 nM |
| – | – | – | N#CCOc1ccc(Nc2nc(Nc3cccc(O)c3)ncc2F)cc1 [R945071, N4-[4-(Cyanomethyleneoxy)phenyl]-5-fluoro-N2-(3-hydroxyphenyl)-2,4-pyrimidinediamine] | – | – | IC50 [6]: < 1100 nM; IC50 [7]: < 1100 nM; IC50 [8]: < 1100 nM; IC50 [9]: < 1100 nM; IC50 [5]: < 1100 nM; IC50 [10]: < 1100 nM |
| 8800 | – | – | Cc1nc(COc2cccc(Nc3ncc(F)c(Nc4ccc5c(c4)OCCO5)n3)c2)no1 [R945128, N4-(3,4-Ethylenedioxyphenyl)-5-fluoro-N2-[3-(5-methyl-1,2,4-oxadiazol-3-yl)methyleneoxyphenyl]-2,4-pyrimidinediamine] | – | – | IC50 [6]: 1280 nM; IC50 [7]: 1750 nM; IC50 [8]: 547 nM; IC50 [5]: > 2000 nM |
| > 10000 | 573 | – | Cc1cc(Nc2nc(Nc3cccc(OCC(=O)N4CCNCC4)c3)ncc2F)cc(C)c1O [R945140, N4-(3,5-Dimethyl-4-hydroxyphenyl)-5-fluoro-N2-[3-(N-piperazino)carbonylmethyleneoxyphenyl]-2,4-pyrimidinediamine] | – | – | IC50 [6]: 994 nM; IC50 [7]: 1110 nM; IC50 [8]: 1550 nM; IC50 [5]: 1710 nM; IC50 [10]: > 10000 nM |
